# Laboratory results as given in patent publication US20100120700A1, “METHODS AND COMPOSITIONS FOR TREATING CERVICAL CANCER” (priority 2000, published 2010).
# Values joined by “and” are separate entries in the source; they are usually repeats but may differ in a detail not shown here. Identical values can stand only once.
# Assays:
# Experiment in all cases: G assay PDZ-PL binding
# AIPC domain 1 = biological target: T1, AIPC domain 1 (Homo sapiens, UniProt O15018); conditions: peptide 10 uM, protein 5
# T1 construct: made in house; host or cells: E. coli (DH5alpha, BL21 or JM109), vector pGEX-3X
# T1 sequence (O15018 with tags, fused parts or gaps): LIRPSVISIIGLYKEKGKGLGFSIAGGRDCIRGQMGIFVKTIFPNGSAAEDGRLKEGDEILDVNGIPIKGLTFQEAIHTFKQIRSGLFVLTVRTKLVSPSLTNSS
# Method in brief: (§1)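 Specific PDZ–peptide binding is taken as replicate mean signal exceeding GST-only background by standard-error criteria. Biotinylated PL peptides (20 uM; 10 uM under G′ conditions) bind to plate-captured GST/PDZ fusion protein and are detected with streptavidin-HRP at 450 nm.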
# ELFIN 1 domain 1 = biological target: T2, ELFIN 1 domain 1 (Homo sapiens, UniProt O00151, G21R); conditions: peptide 10 uM, protein 5
# T2 construct: made in house; host or cells: E. coli (DH5alpha, BL21 or JM109), vector pGEX-3X
# T2 sequence (O00151 2-93 G21R): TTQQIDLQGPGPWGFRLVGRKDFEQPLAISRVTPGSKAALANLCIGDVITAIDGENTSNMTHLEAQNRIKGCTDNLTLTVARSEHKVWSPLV
# Method in brief: as §1
# FLJ12615 domain 1 = biological target: T3, FLJ12615 domain 1 (Homo sapiens, UniProt Q8N3R9); conditions: peptide 10 uM, protein 5
# T3 construct: made in house; host or cells: E. coli (DH5alpha, BL21 or JM109)
# T3 sequence (Q8N3R9 247-343): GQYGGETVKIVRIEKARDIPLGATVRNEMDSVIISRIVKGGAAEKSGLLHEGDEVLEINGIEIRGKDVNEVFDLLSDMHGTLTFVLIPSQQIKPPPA
# Method in brief: as §1
# INADL domain 3 = biological target: T4, INADL domain 3 (Homo sapiens, UniProt Q8NI35); conditions: peptide 10 uM, protein 5
# T4 construct: made in house; host or cells: E. coli (DH5alpha, BL21 or JM109)
# T4 sequence (Q8NI35 with tags, fused parts or gaps): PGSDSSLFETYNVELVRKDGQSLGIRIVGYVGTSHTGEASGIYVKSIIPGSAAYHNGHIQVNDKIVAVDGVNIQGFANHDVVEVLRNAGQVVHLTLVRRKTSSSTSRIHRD
# Method in brief: as §1
# KIAA0147 domain 2 = biological target: T5, KIAA0147 domain 2 (Homo sapiens, UniProt Q14160); conditions: peptide 10 uM, protein 5
# T5 construct: made in house; host or cells: E. coli (DH5alpha or BL-21)
# T5 sequence (Q14160 856-952): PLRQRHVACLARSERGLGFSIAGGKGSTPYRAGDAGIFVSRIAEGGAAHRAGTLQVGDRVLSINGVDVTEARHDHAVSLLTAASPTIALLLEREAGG
# Method in brief: as §1
# KIAA0147 domain 3 = biological target: T6, KIAA0147 domain 3 (Homo sapiens, UniProt Q14160); conditions: A450 nm, peptide 10 uM, protein 5
# T6 construct: made in house; host or cells: E. coli (DH5alpha, BL21 or JM109)
# T6 sequence (Q14160 with tags, fused parts or gaps): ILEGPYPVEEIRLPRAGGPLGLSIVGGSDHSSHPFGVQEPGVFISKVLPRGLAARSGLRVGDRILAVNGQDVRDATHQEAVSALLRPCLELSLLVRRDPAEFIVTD
# Method in brief: as §1
# KIAA0316 domain 1 = biological target: T7, KIAA0316 domain 1 (Homo sapiens, UniProt Q14CM0); conditions: peptide 10 uM, protein 5
# T7 construct: made in house; host or cells: E. coli (DH5alpha, BL21 or JM109), vector pGEX-3X
# T7 sequence (Q14CM0 72-159): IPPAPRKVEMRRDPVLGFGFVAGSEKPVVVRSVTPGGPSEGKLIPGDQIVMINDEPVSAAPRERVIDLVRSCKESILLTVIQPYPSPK
# Method in brief: as §1
# KIAA0973 #148.4 domain 1 = biological target: T8, KIAA0973 #148.4 domain 1 (Homo sapiens, UniProt Q9Y2H9); conditions: peptide 10 uM, protein 5
# T8 construct: made in house; host or cells: E. coli (DH5alpha, BL21 or JM109)
# T8 sequence (Q9Y2H9 963-1055): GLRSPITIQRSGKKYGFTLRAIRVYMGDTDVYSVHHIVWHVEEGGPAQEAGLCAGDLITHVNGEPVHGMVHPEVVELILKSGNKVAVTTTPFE
# Method in brief: as §1
# KIAA0973 #148.5 domain 1 = biological target: T9, KIAA0973 #148.5 domain 1 (Homo sapiens, UniProt Q9Y2H9); conditions: peptide 10 uM, protein 5
# T9 construct: made in house; host or cells: E. coli (DH5alpha, BL21 or JM109)
# T9 sequence (Q9Y2H9 963-1055): as above
# Method in brief: as §1
# KIAA1634 domain 5 = biological target: T10, KIAA1634 domain 5 (Homo sapiens, UniProt Q5TCQ9); conditions: peptide 10 uM, protein 5
# T10 construct: made in house; host or cells: E. coli (DH5alpha or BL-21)
# T10 sequence (Q5TCQ9 1040-1137 isoform Q5TCQ9-2): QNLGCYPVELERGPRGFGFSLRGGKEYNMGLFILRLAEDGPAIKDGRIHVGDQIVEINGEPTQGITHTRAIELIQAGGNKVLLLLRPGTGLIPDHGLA
# Method in brief: as §1
# MAGI 1 domain 6 = biological target: T11, MAGI 1 domain 6 (Homo sapiens, UniProt Q96QZ7); conditions: peptide 10 uM, protein 5
# T11 construct: made in house; host or cells: E. coli (DH5alpha, BL21 or JM109), vector pGEX-3X
# T11 sequence (Q96QZ7 1143-1233): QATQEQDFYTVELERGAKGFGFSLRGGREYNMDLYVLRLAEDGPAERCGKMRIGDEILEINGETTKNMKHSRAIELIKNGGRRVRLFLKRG
# Method in brief: as §1
# MINT1 domain 2 = biological target: T12, MINT1 domain 2 (Homo sapiens, UniProt Q02410); conditions: peptide 10 uM, protein 5
# T12 construct: made in house; host or cells: E. coli (DH5alpha, BL21 or JM109), vector pGEX-3X
# T12 sequence (Q02410 with tags, fused parts or gaps): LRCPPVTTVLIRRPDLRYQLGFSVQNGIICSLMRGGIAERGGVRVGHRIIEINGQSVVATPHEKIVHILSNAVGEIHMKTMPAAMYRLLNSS
# Method in brief: as §1
# RGS12 domain 1 = biological target: T13, RGS12 domain 1 (Homo sapiens, UniProt O14924); conditions: peptide 10 uM, protein 5
# T13 construct: made in house; host or cells: E. coli (DH5alpha, BL21 or JM109), vector pGEX-3X
# T13 sequence (O14924 with tags, fused parts or gaps): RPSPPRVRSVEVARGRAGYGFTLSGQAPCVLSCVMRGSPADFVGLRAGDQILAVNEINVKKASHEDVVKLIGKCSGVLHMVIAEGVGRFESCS
# Method in brief: as §1
# TIP1 domain 1 = biological target: T14, TIP1 domain 1 (Homo sapiens, UniProt O14907); conditions: vs GST only well, peptide 10 uM, protein 5
# T14 construct: made in house; host or cells: E. coli (DH5alpha, BL21 or JM109)
# T14 sequence (O14907 14-116): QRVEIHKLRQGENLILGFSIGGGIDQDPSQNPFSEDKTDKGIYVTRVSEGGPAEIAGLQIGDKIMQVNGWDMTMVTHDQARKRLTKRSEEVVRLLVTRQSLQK
# Method in brief: as §1
substance,measurement,setting,value
"20 mer peptide corresponding to the C-terminus of HPV16 E6 (PDZ ligand), biotinylated in binding assays; ends SSRTRRETQL (SEQ ID NO: 13) [HPV E6 #16]",Ave OD,AIPC domain 1; A450 nm,0.5595
same,OD S/N,AIPC domain 1; vs GST only well,2.30
same,Ave OD,ELFIN 1 domain 1; A450 nm,0.66
same,OD S/N,ELFIN 1 domain 1; vs GST only well,3.39
same,Ave OD,FLJ12615 domain 1; A450 nm,0.4605
same,OD S/N,FLJ12615 domain 1; vs GST only well,2.24
same,Ave OD,INADL domain 3; A450 nm,0.485
same,OD S/N,INADL domain 3; vs GST only well,1.86
same,Ave OD,KIAA0147 domain 2; A450 nm,0.3745
same,OD S/N,KIAA0147 domain 2; vs GST only well,2.46
same,Ave OD,KIAA0147 domain 3,2.0785 and 1.072
same,Ave OD,KIAA0316 domain 1; A450 nm,0.343 and 0.6125
same,OD S/N,KIAA0316 domain 1; vs GST only well,2.34 and 2.56
same,Ave OD,KIAA0973 #148.4 domain 1; A450 nm,1.0105 and 0.6885
same,OD S/N,KIAA0973 #148.4 domain 1; vs GST only well,6.22 and 5.12
same,Ave OD,KIAA0973 #148.5 domain 1; A450 nm,0.378 and 0.4985
same,OD S/N,KIAA0973 #148.5 domain 1; vs GST only well,1.68 and 2.71
same,Ave OD,KIAA1634 domain 5; A450 nm,0.4025
same,OD S/N,KIAA1634 domain 5; vs GST only well,2.07
same,Ave OD,MAGI 1 domain 6; A450 nm,0.71
same,OD S/N,MAGI 1 domain 6; vs GST only well,2.47
same,Ave OD,MINT1 domain 2; A450 nm,0.5925
same,OD S/N,MINT1 domain 2; vs GST only well,2.76 and 2.24
same,Ave OD,RGS12 domain 1; A450 nm,0.4295 and 0.661
same,OD S/N,RGS12 domain 1; vs GST only well,3.96 and 4.64
same,OD S/N,TIP1 domain 1,8.24 and 5.67
